Experimental data reported in US9989533B2, “Anti-TNF induced apoptosis (ATIA) diagnostic markers and therapies” (The United States of America, as represented by the …, priority 2009, dated 2018).
Like-named read-outs stand apart in the source and are kept apart here.

Legend:
ATIA [1] = type: cell-based
ATIA [2] = experiment: effect of cyclohexamide on ATIA stability, blot (FIG. 28 bottom); type: cell-based, human
Method: (§1) FIG. 28 is two panels that show the effect of cyclohexamide on ATIA stability and cell apoptosis.
(§2) Experiments were performed with small chemical molecules to reduce ATIA levels in cancer cells. Examples of small molecules that can be used include, but are not limited to, cyclohexamide. […] Preferably, […] is administered locally to the tumor.

A172 cells = experiment: apoptosis (annexin positive cells) after cyclohexamide treatment under hypoxia (FIG. 28 top); type: cell-based, human; conditions: in the presence of CHX
Method: as §1, §2

ATIA+/+ and ATIA−/− mice = type: in vivo; conditions: GalN pretreatment, TNFα 2 μg/Kg intravenous, by 8 hr post-treatment
Method: (A) is a schematic diagram of ATIA knockout strategy. (B) and (C) show the generation of ATIA+/− ES cells (B) and ATIA+/− and ATIA−/− mice (C) was confirmed by PCR. […] Survival curves of wild-type (n=5) and ATIA KO (n=8) after TNF treatment. […] Tissue sections were analyzed by H&E (left panels) and TUNNEL (right panels) staining.
To determine whether ATIA is able to protect from TNF-induced apoptosis in vivo, a model of TNF-induced hepatitis (26, 27) was used. […] By 8 hr post-treatment, 20% of ATIA+/+ mice as compared to more than 85% of ATIA—mice were moribund (FIG. 5D). […] No other histological differences were noted. […] To further confirm this observation, we also examined TNF-induced apoptosis in ATIA−/− MEFs. Wild-type and ATIA−/− mouse embryonic fibroblast cell lines were established from 10.5-12.5 day old wild-type and ATIA knockout embryos. The cell lines were verified for the loss of ATIA by genomic PCR analysis and western blotting with the anti-ATIA antibody (data not shown). Cells were treated with TNF and varied doses of cyclohexamide (CHX) (FIG. 6A). […] Cell death induced by UV radiation or staurosporine is however, only moderately affected by the loss of ATIA (FIG. 6B).

[3] = test system: A172, U87MG and 251 glioblastoma cells; experiment: TRAIL-induced cell death in glioblastoma cells (FIG. 19); type: cell-based; conditions: ATIA-expressing human glioblastoma cells (A172) versus cells which do not express ATIA (U87MG); TRAIL 20 ng/ml, 24 h
From the text: Next, the sensitivity of ATIA expressing cells to TRAIL-induced cell death was examined. FIG. 19, left panel, is a western blot showing the expression of ATIA in various glioblastoma cell types.

[Cl-].[Cl-].[Co+2] [CoCl2]
ATIA protein expression (ATIA [1]): considerably increased

C[C@@H]1C[C@@H]([C@H](O)CC2CC(=O)NC(=O)C2)C(=O)[C@@H](C)C1 [cycloheximide]
effect on ATIA level (ATIA [2]; 0.5 ug, A172 Cells): causes the decrease of ATIA
effect on ATIA levels (ATIA [2]; low levels (e.g. 0.1 μg-1.0 μg), tumor cells): reduces ATIA levels
apoptosis under hypoxia (A172 cells): undergo apoptosis

TNFα
moribund mice (ATIA+/+ and ATIA−/− mice; ATIA+/+ mice): 20%
moribund mice (ATIA+/+ and ATIA−/− mice; ATIA−/− mice): more than 85%

B1: TRAIL: tumour necrosis factor-related apoptosis-inducing ligand (protein, UniProt P50591 1-281, looked up)
Tumor necrosis factor ligand …: MAMMEVQGGPSLGQTCVLIVIFTVLLQSLCVAVTYVYFTNELKQMQDKYSKSGIACFLKEDDSYWDPNDEESMNSPCWQVKWQLRQLVRKMILRTSEETISTVQEKQQNISPLVRERGPQRVAAHITGTRGRSNTLSSPNSKNEKALGRKINSWESSRSGHSFLSNLHLRNGELVIHEKGFYYIYSQTYFRFQEEIKENTKNDKQMVQYIYKYTSYPDPILLMKSARNSCWSKDAEYGLYSIYQGGIFELKENDRIFVSVTNEHLIDMDHEASFFGAFLVG
sensitivity to TRAIL-induced cell death [3]: much more sensitive to TRAIL-induced cell death
